From patent publication US20110143958A1, “Methods of Identifying Modulators of Ubiquitin Ligases” (priority 2008, published 2011)

Test system: E3 ubiquitylation reaction (E1, E2, and E3)
Test: E3 ligase assay using 5′-IAF-UBA1, inhibition assays
Type: biochemical, human
Details: E1, E2, and E3 pre-incubated with various concentrations for 30 minutes at room temperature; detection with 5′-IAF-UBA1 and immunoblot; FIGS. 9A-D
Protocol: E3 ligase reactions contained 10 nM GST-Praja1, 500 nM 6× His-SUMO-CARP2 or 500 nM 6× His-SUMO-MuRF1 as E3s, 50 nM E1, 150 nM UbcH5c (E2), 500 ng Ubiquitin, 2 mM ATP, 50 mM Tris-HCl pH8.0, 5 mM MgCl2, 0.1 mM DTT. For measuring SCF^Atrogin-1 E3 ligase activity, the reaction was assembled essentially as described above except that the E3 ligase contained 6× His-SUMO-Atrogin-1, Cullin-1 (“Cul1”), Roc-1 (“Rbx-1”) and 6× His-Skp1 (250 nM each). In order to obtain large amounts of the Cul1-Rbx1 complex for the SCF complex, we used a procedure to overexpress the Cul1-Rbx1 complex in E. coli. Zheng, et al., Nature, 416(6882):703-9 (2002). The Cul1 gene was split into two halves (residues 1-410 and residues 411-776) and co-expressed with GST-tagged Rbx1 as three different polypeptide chains. A PCR product encoding Skp1 was generated using the primers 5′-[…]-3′ (SEQ ID NO:28) and 5′-[…]-3′ (SEQ ID NO:29) and human Skp1 cDNA as the template. […]
For inhibition assays, reactions containing E1, E2, and E3 were pre-incubated with various concentrations of NEM and ubistatin A for 30 minutes at room temperature before initiating the reaction by adding ubiquitin and ATP. […] The wells were washed with 1× PBS and readings were taken using a fluorescence plate reader with excitation and emission wavelengths of 485 nm and 535 nm, respectively. […]

Row | inhibition of the E3 ubiquitylation assay | SMILES
1 | inhibited | CCN1C(=O)C=CC1=O [NEM]
2 | inhibited | O=C(Nc1ccc(/C=C/c2ccc(NC(=O)c3cc(S(=O)(=O)O)c4cccnc4c3O)cc2S(=O)(=O)O)c(S(=O)(=O)O)c1)c1cc(S(=O)(=O)O)c2cccnc2c1O [Ubistatin A]
